The values below come from PMC9138991, “Effect of Trimethine Cyanine Dye- and Folate-Conjugation on the In Vitro Biological Activity of Proapoptotic Peptides” (Biomolecules, 2022).

SMILES strings stand for the structures. Where a SMILES comes first, the peptide text is derived from it. [ ]: non-standard residue; d: D form. The star is where a group is joined. X1 = CN1/C(=C\C=C\C2=[N+](CCCCCC(=O)*)c3ccccc3C2(C)C)C(C)(C)c2ccccc21; Cha = N[C@@H](CC1CCCCC1)C(=O)O; dCha = N[C@H](CC1CCCCC1)C(=O)O

Holding throughout (format): cell-based, human
Test [1] deals with mitochondria of MCF7 cells. Kind of test: Confocal microscopy, colocalisation with MitoTracker Green FM, MCF7 cells. As to conditions: 10 µM conjugate, 10 min at 37 °C; for Pearson's correlation coefficient of MitoTracker Green and Cy3 fluorescence: imaged at 20X; for Pearson's correlation coefficient of MitoTracker Green FM and Cy3 fluorescence: imaged at 63X. On the procedure: (§1) SK-OV-3 and MCF7 were seeded at a density of 1 × 10^6 cells per well in glass-bottom culture dishes and grown at 37 °C in a 5% CO2 atmosphere in medium supplemented with 10% (v/v) FBS for 24 h. Cells were washed once with the RPMI-1640 medium supplemented with 10% (v/v) FBS before staining. Compounds 1, 5–10 were diluted into the RPMI-1640 medium supplemented with 10% (v/v) FBS to 10 μM and then added to the culture dishes, respectively. After 10-min incubation at 37 °C, cells were washed with RPMI-1640 medium supplemented with 10% (v/v) FBS. Cells were then treated with 50 nM MitoTracker Green FM and 10 μg/mL Hoechst33258 pre-formulated with RPMI-1640 medium supplemented with 10% (v/v) FBS and then incubated for another 10 min at 37 °C before analysis on ZEISS LSM 900 with Airyscan 2. The results were analyzed using Image J software (Figure 3 and Figures S4–S7 in Supplementary Materials).
(§2) Figure 3 Confocal microscopy images of SK-OV-3 and MCF7 cells treated with Cy3-containing conjugates. Cells were treated with 10 µM of the indicated conjugate for 10 min at 37 °C, washed, stained with 50 nM MitoTracker Green FM and 10 μg/mL Hoechst33258 for 10 min at 37 °C, washed, and imaged at 63X. Pearson’s correlation coefficients of MitoTracker Green FM and Cy3 fluorescence for compounds 1, 5, 6, 7, 8, 9, and 10 in SK-OV-3 and MCF cells are 0.75/0.64, 0.73/0.81, 0.91/0.61, 0.78/0.63, 0.85/0.69, 0.43/0.82, and 0.78/0.60, respectively. Excitation wavelengths for Hoechst33258, MitoTracker Green FM and Cy3 were set as 405, 488, and 561 nm, respectively. Scale bars denote 25 μm. Additional images, including the results of Hoechst33258 staining, are shown in Figure S4 (SK-OV-3 at 20X), Figure S5 (SK-OV-3 at 63X), Figure S6 (MCF7 at 20X) and Figure S7 (MCF7 at 63X), Supplementary Materials.

Another test deals with MCF7 cells. The test can be described thus: Cell viability assay (CellTiter-Blue), MCF7 cells. The following applies: MCF7 cells, 2 × 10^4 cells per well, DMEM + 10% FBS, 1% DMSO, 24 h at 37 °C, then CellTiter-Blue 4 h; three biological replicates fitted in Origin, standard error in brackets. The method, then: (§3) KB and MCF7 cells were kindly gifted by Prof. Arwyn T. Jones (Cardiff University), HEK293 cells were purchased from Public Health England, and SK-OV-3 cells were purchased from National Collection of Authenticated Cell Cultures (https://cell-bank.org.cn/). Cells were routinely tested for mycoplasma infection. KB and SK-OV-3 cells were maintained in T75 flasks at 37 °C in a 5% CO2 atmosphere in folic acid-depleted Roswell Park Memorial Institute (RPMI)-1640 medium supplemented with 10% (v/v) fetal bovine serum (FBS). MCF7 and HEK293 cells were maintained in T75 flasks at 37 °C in a 5% CO2 atmosphere in Dulbecco’s Modified Eagle’s medium (DMEM) supplemented with 10% (v/v) FBS. Cells were maintained at a sub-confluent monolayer and split at 80–85% confluency. For splitting, cells were washed with PBS, trypsinized in 1 mL of trypsin, and 200 µL of the 1000 µL trypsin cell suspension was re-suspended in 12 mL fresh DMEM containing 10% (v/v) FBS in a new T75 flask. KB and SK-OV-3 cells were used for biological experiments after being maintained for at least 10 days in folic acid-depleted RPMI-1640 medium.
(§4) SK-OV-3, MCF7, and HEK293 cells were seeded at a density of 2 × 10^4 cells per well in a Nunc™ MicroWell™ 96-well plate and grown at 37 °C in a 5% CO2 atmosphere in DMEM supplemented with 10% (v/v) FBS for 24 h. KB cells were seeded at a density of 7 × 10^3 cells per well in a 96-well plate and grown at 37 °C in a 5% CO2 atmosphere in folic acid-depleted RPMI-1640 medium supplemented with 10% (v/v) FBS for 24 h. Stock solutions of compounds 2–6 and 11–13 were obtained by dissolving the compounds in sterile deionized water. Compounds 1, and 7–10 were dissolved in pure DMSO. The stock solutions were diluted into the proper medium (according to the cell line tested) supplemented with 10% FBS to the appropriate concentration, and cells in each well were incubated with 100 µL of the solution. The solutions in each well were then adjusted to a concentration of 1% (v/v) DMSO. After 24 h at 37 °C, 20 µL of CellTiter-Blue™ was added to each well. The plate was incubated for another 4 h at 37 °C before analysis on a Perkin Elmer Victor X plate reader (excitation 531 nm; emission 595 nm). Each data point was calculated from a minimum of nine values resulting from three biological replicates (i.e., cells split from three different passages); each biological replicate is calculated from three technical replicates (i.e., cells split from the same passage). Value from media-only with CellTiter-Blue™ was set at 0% viability. This value was then subtracted from the values from cell-only (i.e., non-treated) wells with CellTiter-Blue™ in each biological replicate and set as 100% viability. For treatments of Cy3-containing compounds, blanks were generated with cell-free wells containing the compounds incubated for 24 h before addition of CellTiter-Blue™. The fluorescent reading for these wells was deducted from the treatment readings. Dose-response fitting curves were generated using Origin, version 2019b, OriginLab Corporation, Northampton, MA, USA (Figures S21–S24, Supplementary Materials).
(§5) Comparison of cytotoxicity fitting curves was achieved by applying the extra sum-of-squares F test, performed using GraphPad Prism version 9 for Windows, GraphPad Software, La Jolla, California, USA (https://www.graphpad.com/). […] Statistical analysis on the flow cytometry data was achieved by applying the unpaired two-tailed t-test test, performed using GraphPad Prism version 9 for Windows, GraphPad Software, La Jolla California USA, USA (https://www.graphpad.com/).
(§6) Cytotoxicity of 1–13 was evaluated using the CellTiter-Blue assay on KB, MCF7, SK-OV-3, and HEK293 cells. KB cells are derived from human cervical cancer, while SK-OV-3 cells are derived from human ovarian cancer. […] This feature is of particular relevance in anticancer applications, as it can be exploited for selective targeting and delivery. […]

In another test the test system is HEK293 cells. Kind of test: Cell viability assay (CellTiter-Blue), HEK293 cells. As to conditions: 2 × 10^4 cells per well, DMEM + 10% FBS, 1% DMSO, 24 h at 37 °C, then CellTiter-Blue 4 h, three biological replicates fitted in Origin, standard error in brackets. The method, then:
as §3, §4, §5, §6

Test [2] deals with mitochondria of SK-OV-3 cells. Kind of test: Confocal microscopy, colocalisation with MitoTracker Green FM, SK-OV-3 cells. As to conditions: 10 µM conjugate, 10 min at 37 °C; for Pearson's correlation coefficient of MitoTracker Green and Cy3 fluorescence: imaged at 20X; for Pearson's correlation coefficient of MitoTracker Green FM and Cy3 fluorescence: imaged at 63X. The method, then: as §1, §2

A further test deals with KB cells. Kind of test: Cell viability assay (CellTiter-Blue), KB cells. As to conditions: 7 × 10^3 cells per well, folic acid-depleted RPMI-1640 + 10% FBS, 1% DMSO, 24 h at 37 °C, then CellTiter-Blue 4 h, three biological replicates fitted in Origin, standard error in brackets. The method, then:
as §3, §4, §5, §6

For the next test, the system named is SK-OV-3 cells. The test can be described thus: Cell viability assay (CellTiter-Blue), SK-OV-3 cells. As to conditions: 2 × 10^4 cells per well, medium + 10% FBS, 1% DMSO, 24 h at 37 °C, then CellTiter-Blue 4 h, three biological replicates fitted in Origin, standard error in brackets. The method, then:
as §3, §4, §5, §6

In the case of `CC(C)C[C@H](NC(=O)[C@H](CCCCN)NC(=O)CCCCC[N+]1=C(/C=C/C=C2\N(C)c3ccccc3C2(C)C)C(C)(C)c2ccccc21)C(=O)N[C@@H](C)C(=O)N[C@@H](CCCCN)C(=O)N[C@@H](CC(C)C)C(=O)N[C@@H](C)C(=O)N[C@@H](CCCCN)C(=O)N[C@@H](CCCCN)C(=O)N[C@@H](CC(C)C)C(=O)N[C@@H](C)C(=O)N[C@@H](CCCCN)C(=O)N[C@@H](CC(C)C)C(=O)N[C@@H](C)C(=O)N[C@@H](CCCCN)C(N)=O` [Compound 5], the “Pearson's correlation coefficient of MitoTracker Green and Cy3 fluorescence” value in test [1] stood at 0.80; in test [2], 0.76. Further, the “Pearson's correlation coefficient of MitoTracker Green FM and Cy3 fluorescence” value in test [1] turned out to be 0.81; in test [2] it was 0.73. The EC50 with MCF7 cells worked out at 7.37 µM; in the test on HEK293 cells it was 44.3 µM; in the test with KB cells it was 6.7 µM; in the test on SK-OV-3 cells it was 11 µM.
As to `CC(C)C[C@@H](NC(=O)[C@@H](CCCCN)NC(=O)CCCCC[N+]1=C(/C=C/C=C2\N(C)c3ccccc3C2(C)C)C(C)(C)c2ccccc21)C(=O)N[C@H](C)C(=O)N[C@H](CCCCN)C(=O)N[C@H](CC(C)C)C(=O)N[C@H](C)C(=O)N[C@H](CCCCN)C(=O)N[C@H](CCCCN)C(=O)N[C@H](CC(C)C)C(=O)N[C@H](C)C(=O)N[C@H](CCCCN)C(=O)N[C@H](CC(C)C)C(=O)N[C@H](C)C(=O)N[C@H](CCCCN)C(N)=O` [Compound 6], the “Pearson's correlation coefficient of MitoTracker Green and Cy3 fluorescence” value in test [1] amounted to 0.81; in test [2], 0.74. In addition, the figures for the “Pearson's correlation coefficient of MitoTracker Green FM and Cy3 fluorescence” value in test [1] and in test [2] were 0.61 and 0.91, respectively. The EC50 with MCF7 cells came out at 5.7 µM; in the test with HEK293 cells, 5.3 µM; in the test with KB cells, 3.5 µM; with SK-OV-3 cells, 6.39 µM.
`C[C@@H](NC(=O)[C@H](CC1CCCCC1)NC(=O)[C@@H](CCCCN)NC(=O)[C@@H](C)NC(=O)[C@@H](CC1CCCCC1)NC(=O)[C@@H](CCCCN)NC(=O)CCCCC[N+]1=C(/C=C/C=C2\N(C)c3ccccc3C2(C)C)C(C)(C)c2ccccc21)C(=O)N[C@H](CCCCN)C(=O)N[C@H](CCCCN)C(=O)N[C@@H](CC1CCCCC1)C(=O)N[C@H](C)C(=O)N[C@H](CCCCN)C(=O)N[C@H](CC1CCCCC1)C(=O)N[C@H](C)C(=O)N[C@H](CCCCN)C(N)=O` [Compound 7] (X1-[dK][dCha][dA][dK][Cha][dA][dK][dK][Cha][dA][dK][dCha][dA][dK]-NH2): the results for the “Pearson's correlation coefficient of MitoTracker Green and Cy3 fluorescence” value in test [1] and in test [2] were 0.52 and 0.74, respectively. The “Pearson's correlation coefficient of MitoTracker Green FM and Cy3 fluorescence” value is listed as 0.63 in test [1] and 0.78 in test [2]. The concentration for a half-maximal effect (EC50) was found to be 11.6 µM with MCF7 cells, 8.2 µM with HEK293 cells, 5.5 µM in the test on KB cells and 23 µM in the test with SK-OV-3 cells.
As to `CC(C)C[C@H](NC(=O)[C@H](CCCCN)NC(=O)[C@H](C)NC(=O)[C@H](CC(C)C)NC(=O)[C@H](CCCCN)NC(=O)[C@H](CCCCN)NC(=O)[C@H](C)NC(=O)[C@H](CC(C)C)NC(=O)[C@H](CCCCN)NC(=O)[C@H](C)NC(=O)[C@H](CC(C)C)NC(=O)[C@H](CCCCN)NC(=O)[C@H](CCCCNC(=O)[C@H](CCC(=O)O)NC(=O)c1ccc(NCc2cnc3nc(N)nc(O)c3n2)cc1)NC(=O)CCCCC[N+]1=C(/C=C/C=C2\N(C)c3ccccc3C2(C)C)C(C)(C)c2ccccc21)C(=O)N[C@@H](C)C(=O)N[C@@H](CCCCN)C(N)=O` [Compound 8], the “Pearson's correlation coefficient of MitoTracker Green and Cy3 fluorescence” value is recorded as 0.60 in test [1] and 0.53 in test [2]. Also, the “Pearson's correlation coefficient of MitoTracker Green FM and Cy3 fluorescence” value in test [1] was found to be 0.69; in test [2], 0.85. Further, the half-maximal effective concentration (EC50) with MCF7 cells came out at 49.4 µM; with HEK293 cells, 35.6 µM; in the test on KB cells, 38.8 µM; in the test with SK-OV-3 cells it was 8.8 µM.
On to `CC(C)C[C@@H](NC(=O)[C@@H](CCCCN)NC(=O)[C@H](CCCCNC(=O)[C@H](CCC(=O)O)NC(=O)c1ccc(NCc2cnc3nc(N)nc(O)c3n2)cc1)NC(=O)CCCCC[N+]1=C(/C=C/C=C2\N(C)c3ccccc3C2(C)C)C(C)(C)c2ccccc21)C(=O)N[C@H](C)C(=O)N[C@H](CCCCN)C(=O)N[C@H](CC(C)C)C(=O)N[C@H](C)C(=O)N[C@H](CCCCN)C(=O)N[C@H](CCCCN)C(=O)N[C@H](CC(C)C)C(=O)N[C@H](C)C(=O)N[C@H](CCCCN)C(=O)N[C@H](CC(C)C)C(=O)N[C@H](C)C(=O)N[C@H](CCCCN)C(N)=O` [Compound 9], for which the “Pearson's correlation coefficient of MitoTracker Green and Cy3 fluorescence” value in test [1] is recorded as 0.61; in test [2] it was 0.52. Moreover, the “Pearson's correlation coefficient of MitoTracker Green FM and Cy3 fluorescence” value in test [1] came to 0.82; in test [2] it was 0.43. The EC50 came to 13.2 µM in the test with MCF7 cells, 6.9 µM with HEK293 cells, 22.4 µM with KB cells and 8 µM in the test with SK-OV-3 cells.
